EC50 data for 29 molecules are collected here from patent US20230265094A1, “RIPK1 INHIBITORS AND METHODS OF USE” (Merck Sharp & Dohme LLC, priority 2020, published 2023).

The structures appear in SMILES notation. Counter-ions that a name gives are not always drawn.

The experiment addresses T1, RIPK1 (Homo sapiens, UniProt Q13546).
T1 construct: recombinant GST-RIPK1 kinase domain (residues 1-327) enzyme produced from baculovirus-transfected Sf21 cells; host or cells: baculovirus-transfected Sf21 insect cells
T1 sequence (Q13546 1-327): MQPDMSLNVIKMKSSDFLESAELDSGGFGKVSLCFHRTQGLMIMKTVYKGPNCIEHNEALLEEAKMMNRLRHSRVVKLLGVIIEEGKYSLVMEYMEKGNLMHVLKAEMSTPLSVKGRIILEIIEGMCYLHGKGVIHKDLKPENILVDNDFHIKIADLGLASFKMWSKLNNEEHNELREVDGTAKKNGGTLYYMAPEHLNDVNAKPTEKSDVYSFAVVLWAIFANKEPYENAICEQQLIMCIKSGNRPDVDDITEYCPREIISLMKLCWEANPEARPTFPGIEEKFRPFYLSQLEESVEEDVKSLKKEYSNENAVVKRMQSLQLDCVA
Nature of the experiment: RIPK1-ADP-Glo enzymatic assay. The class given is biochemical. The note with it: ADP-Glo luminescent ADP detection; 25 nM GST-RIPK1 kinase domain (residues 1-327), 300 μM ATP, dephosphorylated-MBP substrate; 30 min pre-incubation, 150 min reaction. On the procedure: RIPK1-ADP-Glo Enzymatic Assay
The enzymatic activity of RIPK1 is measured using an assay derived from ADP-Glo kit (Promega™), which provides a luminescent-based ADP detection system. Specifically, the ADP generated by RIPK1 kinase is proportionally detected as luminescent signals in a homogenous fashion. In this context, the assessment of the inhibitory effect of small molecules (EC50) is measured by the effectiveness of the compounds to inhibit the ATP to ADP conversion by RIPK1.
In this assay, the potency (EC50) of each compound was determined from a ten-point (1:3 serial dilution; top compound concentration of 100000 nM) titration curve using the following outlined procedure. To each well of a white ProxiPlus 384 well-plate, 30 nL of compound (1% DMSO in final assay volume of 3 μL) was dispensed, followed by the addition of 2 μL of 1×assay buffer (25 mM Hepes 7.3, 20 mM MgCl2, 50 mM NaCl, 1 mM DTT, 0.005% Tween20, and 0.02% BSA) containing 37.5 nM of GST-RIPK1 (recombinant GST-RIPK1 kinase domain (residues 1-327) enzyme produced from baculovirus-transfected Sf21 cells: MW=62 kDa). Plates were placed in an ambient temperature humidified chamber for a 30 minutes pre-incubation with compound. Subsequently, each reaction was initiated by the addition of 1 μL 1×assay buffer containing 900 μM ATP and […] dephosphorylated-MBP substrate. The final reaction in each well of 3 μL consists of 25 nM of GST-RIPK1, 300 μM ATP, and 3 μM dephosphorylated-MBP. Kinase reactions were allowed to proceed for 150 minutes prior to adding ADP-Glo reagents per Promega's outlined kit protocol. Dose-response curves were generated by plotting percent effect (% product conversion; Y-axis) vs. Log10 compound concentrations (X-axis). EC50 values were calculated using a non-linear regression, four-parameters sigmoidal dose-response model.

`O=C(N1CC(OCc2ccccc2)C1)N1N=CC[C@H]1c1cc(F)cc(F)c1` [Example 1.25, (S)-(3-(benzyloxy)azetidin-1-yl)(5-(3,5-difluorophenyl)-4,5-dihydro-1H-pyrazol-1-yl)methanone] returned an EC50 of 11.8 nM.
With `O=C(N1CC2(CCCO2)C1)N1N=CC[C@H]1c1cc(F)cc(F)c1` [Example 1.26, (S)-(5-(3,5-difluorophenyl)-4,5-dihydro-1H-pyrazol-1-yl)(5-oxa-2-azaspiro[3.4]octan-2-yl)methanone], the EC50 is 47.4 nM.
`O=C(N1CC(O)(C(F)(F)F)C1)N1N=CC[C@H]1c1cc(F)cc(F)c1` [Example 1.27, (S)-(5-(3,5-difluorophenyl)-4,5-dihydro-1H-pyrazol-1-yl)(3-hydroxy-3-(trifluoromethyl)azetidin-1-yl)methanone] displayed an EC50 of 988 nM.
As to `CC1(O)CN(C(=O)N2N=CC[C@H]2c2cc(F)cc(F)c2)C1` [Example 1.28, (S)-(5-(3,5-difluorophenyl)-4,5-dihydro-1H-pyrazol-1-yl)(3-hydroxy-3-methylazetidin-1-yl)methanone], the EC50 turned out to be 3590 nM.
As to `CC1(F)CN(C(=O)N2N=CC[C@H]2c2cc(F)cc(F)c2)C1` [Example 1.29, (S)-(5-(3,5-difluorophenyl)-4,5-dihydro-1H-pyrazol-1-yl)(3-fluoro-3-methylazetidin-1-yl)methanone], the concentration giving a half-maximal response (EC50) was found to be 61.7 nM.
In turn, `CC(C)C1(O)CN(C(=O)N2N=CC[C@H]2c2cc(F)cc(F)c2)C1` [Example 1.30, (S)-(5-(3,5-difluorophenyl)-4,5-dihydro-1H-pyrazol-1-yl)(3-hydroxy-3-isopropylazetidin-1-yl)methanone] registered an EC50 of 2290 nM.
Consider `O=C(N1CC(F)C1)N1N=CC[C@H]1c1cc(F)cc(F)c1` [Example 1.31, (S)-(5-(3,5-difluorophenyl)-4,5-dihydro-1H-pyrazol-1-yl)(3-fluoroazetidin-1-yl)methanone], for which a half-maximal effect (EC50) was put at 38.4 nM.
In turn, `O=C(N1CC(F)(F)C1)N1N=CC[C@H]1c1cc(F)cc(F)c1` [Example 1.32, (S)-(3,3-difluoroazetidin-1-yl)(5-(3,5-difluorophenyl)-4,5-dihydro-1H-pyrazol-1-yl)methanone] came in with an EC50 of 17.2 nM.
With `O=C(N1CC(Cl)C1)N1N=CC[C@H]1c1cc(F)cc(F)c1` [Example 1.33, (S)-(3-chloroazetidin-1-yl)(5-(3,5-difluorophenyl)-4,5-dihydro-1H-pyrazol-1-yl)methanone], a half-maximal effect (EC50) was put at 18.3 nM.
Next, `O=C(N1CC(O)(C2CC2)C1)N1N=CC[C@H]1c1cc(F)cc(F)c1` [Example 1.34, (S)-(3-cyclopropyl-3-hydroxyazetidin-1-yl)(5-(3,5-difluorophenyl)-4,5-dihydro-1H-pyrazol-1-yl)methanone]: 2460 nM.
`O=C(N1CC2(C1)CN(c1cnccn1)C2)N1N=CC[C@H]1c1cc(F)cc(F)c1` [Example 1.35, (S)-(5-(3,5-difluorophenyl)-4,5-dihydro-1H-pyrazol-1-yl)(6-(pyrazin-2-yl)-2,6-diazaspiro[3.3]heptan-2-yl)methanone] registered an EC50 of 5150 nM.
Consider `CC1(C#N)CN(C(=O)N2N=CC[C@H]2c2cc(F)cc(F)c2)C1` [Example 1.36, (S)-1-(5-(3,5-difluorophenyl)-4,5-dihydro-1H-pyrazole-1-carbonyl)-3-methylazetidine-3-carbonitrile], for which the EC50 was 62.3 nM.
For `O=C(N1CC(C(F)F)C1)N1N=CC[C@H]1c1cc(F)cc(F)c1` [Example 1.37, (S)-(3-(difluoromethyl)azetidin-1-yl)(5-(3,5-difluorophenyl)-4,5-dihydro-1H-pyrazol-1-yl)methanone], the EC50 turned out to be 22.6 nM.
`COCCC1CN(C(=O)N2N=CC[C@H]2c2cc(F)cc(F)c2)C1` [Example 1.38, (S)-(5-(3,5-difluorophenyl)-4,5-dihydro-1H-pyrazol-1-yl)(3-(2-methoxyethyl)azetidin-1-yl)methanone]: the EC50 came to 105 nM.
`N#CC1(c2ccccc2)CN(C(=O)N2N=CC[C@H]2c2cc(F)cc(F)c2)C1` [Example 1.39, (S)-1-(5-(3,5-difluorophenyl)-4,5-dihydro-1H-pyrazole-1-carbonyl)-3-phenylazetidine-3-carbonitrile] came in with a half-maximal effective concentration (EC50) of 648 nM.
Next, `CC1CN(C(=O)N2N=CC[C@H]2c2cc(F)cc(F)c2)C1` [Example 1.40, (S)-(5-(3,5-difluorophenyl)-4,5-dihydro-1H-pyrazol-1-yl)(3-methylazetidin-1-yl)methanone]: 26 nM; `O=C(N1CC(c2ccccc2)C1)N1N=CC[C@H]1c1cc(F)cc(F)c1` [Example 1.41, (S)-(5-(3,5-difluorophenyl)-4,5-dihydro-1H-pyrazol-1-yl)(3-phenylazetidin-1-yl)methanone]: 6.6 nM.
In turn, `O=C(N1CC(c2cccnc2)C1)N1N=CC[C@H]1c1cc(F)cc(F)c1` [Example 1.42, (S)-(5-(3,5-difluorophenyl)-4,5-dihydro-1H-pyrazol-1-yl)(3-(pyridin-3-yl)azetidin-1-yl)methanone, TFA salt] gave an EC50 of 28.6 nM.
With `O=C(N1CC(F)(c2ccccc2)C1)N1N=CC[C@H]1c1cc(F)cc(F)c1` [Example 1.43, (S)-(5-(3,5-difluorophenyl)-4,5-dihydro-1H-pyrazol-1-yl)(3-fluoro-3-phenylazetidin-1-yl)methanone], the 50% effective concentration (EC50) was 775 nM.
The result for `O=C(N1CC(O)(c2ccccc2)C1)N1N=CC[C@H]1c1cc(F)cc(F)c1` [Example 1.44, (S)-(5-(3,5-difluorophenyl)-4,5-dihydro-1H-pyrazol-1-yl)(3-hydroxy-3-phenylazetidin-1-yl)methanone] reads 811 nM; that for `COC1(C)CN(C(=O)N2N=CC[C@H]2c2cc(F)cc(F)c2)C1` [Example 1.45, (S)-(5-(3,5-difluorophenyl)-4,5-dihydro-1H-pyrazol-1-yl)(3-methoxy-3-methylazetidin-1-yl)methanone], 98.5 nM.
The result for `COC1(C(F)(F)F)CN(C(=O)N2N=CC[C@H]2c2cc(F)cc(F)c2)C1` [Example 1.46, (S)-(5-(3,5-difluorophenyl)-4,5-dihydro-1H-pyrazol-1-yl)(3-methoxy-3-(trifluoromethyl)azetidin-1-yl)methanone] reads 233 nM.
Next, `CCOc1cccc(CC2CN(C(=O)N3N=CC[C@H]3c3cc(F)cc(F)c3)C2)c1` [Example 1.48, (S)-(5-(3,5-difluorophenyl)-4,5-dihydro-1H-pyrazol-1-yl)(3-(3-ethoxybenzyl)azetidin-1-yl)methanone]: 17.1 nM; `Cc1ccccc1OC1CN(C(=O)N2N=CC[C@H]2c2cc(F)cc(F)c2)C1` [Example 1.49, (S)-(5-(3,5-difluorophenyl)-4,5-dihydro-1H-pyrazol-1-yl)(3-(o-tolyloxy)azetidin-1-yl)methanone]: 11.7 nM; `O=C(N1CC(Oc2ccc(F)cc2)C1)N1N=CC[C@H]1c1cc(F)cc(F)c1` [Example 1.50, (S)-(5-(3,5-difluorophenyl)-4,5-dihydro-1H-pyrazol-1-yl)(3-(4-fluorophenoxy)azetidin-1-yl)methanone]: 7 nM.
The molecule `O=C(N1CC(c2ccncn2)C1)N1N=CC[C@H]1c1cc(F)cc(F)c1` [Example 1.51, (S)-(5-(3,5-difluorophenyl)-4,5-dihydro-1H-pyrazol-1-yl)(3-(pyrimidin-4-yl)azetidin-1-yl)methanone] had an EC50 of 1110 nM.
For `O=C(N1CC(OCc2ncc(Br)s2)C1)N1N=CC[C@H]1c1cc(F)cc(F)c1` [Example 1.52, (S)-(3-((5-bromothiazol-2-yl)methoxy)azetidin-1-yl)(5-(3,5-difluorophenyl)-4,5-dihydro-1H-pyrazol-1-yl)methanone], the EC50 was determined as 23.9 nM.
In turn, `O=C(N1CC2(CCCOC2)C1)N1N=CC[C@H]1c1cc(F)cc(F)c1` [Example 1.53, (S)-(5-(3,5-difluorophenyl)-4,5-dihydro-1H-pyrazol-1-yl)(6-oxa-2-azaspiro[3.5]nonan-2-yl)methanone] registered an EC50 of 530 nM.
For the molecule `CS(=O)(=O)C1CN(C(=O)N2N=CC[C@H]2c2cc(F)cc(F)c2)C1` [Example 1.54, (S)-(5-(3,5-difluorophenyl)-4,5-dihydro-1H-pyrazol-1-yl)(3-(methylsulfonyl)azetidin-1-yl)methanone], the response was half-maximal at 4230 nM (EC50).

One may read the EC50 as the concentration at which the effect is half-maximal.
